Source: paper PMC9994133, “Substrate selectivity and inhibition of histidine JmjC hydroxylases MINA53 and NO66” (RSC Chemical Biology, 2023)
Square brackets hold non-standard residues; d marks the D form. Ends that are not written are not given here. Peptide text beside a SMILES is read from it. Aad = N[C@@H](CCCC(=O)O)C(=O)O

How the values were obtained:
NO66 = biological target: T1, NO66 (Homo sapiens, UniProt Q9H6W3); experiment: NO66 inhibition assay by Rpl8 peptides (MALDI-TOF MS); type: biochemical; settings: 10 μM 2OG; for IC50: 400 nM NO66, 10 nM to 250 μM inhibitor Rpl peptide, 100 μM L-ascorbic acid, 10 μM ferrous ammonium sulfate, 50 mM MES pH 7.0, Rpl8-His216 substrate, duplicate assays; for inhibition at 5 µM: 5 μM inhibitor Rpl8 peptide, 400 nM NO66, 100 μM LAA, 10 μM FAS, 50 mM MES pH 7.0, 10 min preincubation, then 5 μM Rpl8-His216 substrate, 2 hours, room temperature, duplicate
T1 construct: His6; made in house; host or cells: Escherichia coli BL21(DE3), pET-28b
T1 sequence (Q9H6W3 167-641): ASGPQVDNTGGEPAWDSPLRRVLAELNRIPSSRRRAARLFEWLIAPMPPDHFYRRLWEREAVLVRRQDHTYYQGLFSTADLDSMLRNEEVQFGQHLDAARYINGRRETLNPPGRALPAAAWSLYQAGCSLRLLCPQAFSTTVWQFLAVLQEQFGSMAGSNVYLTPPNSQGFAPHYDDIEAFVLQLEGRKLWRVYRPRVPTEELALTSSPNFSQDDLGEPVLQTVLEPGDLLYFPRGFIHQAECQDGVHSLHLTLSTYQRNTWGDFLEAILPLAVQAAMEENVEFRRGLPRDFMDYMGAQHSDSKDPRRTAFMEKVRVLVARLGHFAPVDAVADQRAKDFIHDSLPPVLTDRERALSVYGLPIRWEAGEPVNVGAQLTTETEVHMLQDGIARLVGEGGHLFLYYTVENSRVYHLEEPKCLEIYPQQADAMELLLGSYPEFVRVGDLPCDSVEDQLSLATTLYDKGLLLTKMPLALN
Description: (§1) Having shown that our Rpl peptides are not, at least efficient, ROX substrates, we explored them as inhibitors of the recombinant human ROXs using MALDI-TOF assays (Rpl8/27a-N^τ-Me, Rpl8/27a-N^π-Me, Rpl8/27a-1-TriaA, Rpl8/27a-4-TriaA and Rpl8/27a-TetrA were excluded from the panels for NO66 and MINA53, respectively, due to signal overlap between the two peptides in the assays). Synthetic Rpl peptides (5 or 50 μM) were incubated with MINA53/NO66 (400 nM), ferrous ammonium sulfate (10 μM) and 2OG (10 μM) for 10 minutes, after which time the Rpl27a-His39 and Rpl8-His216 substrates were added, respectively, and the reactions were carried out for 2 hours at room temperature (Fig. 4 and Fig. S9, ESI ^†).
(§2) IC50 values were determined for the peptides that manifested clear inhibition potency by varying the concentration of the Rpl peptide inhibitor from 10 nM to 250 μM (Fig. 5 and Table 1).
(§3) IC50 values for MINA53 inhibition by Rpl27a peptides and NO66 inhibition by Rpl8 peptides. Conditions: 400 nM MINA53/NO66, 10 nM to 250 μM inhibitor Rpl peptide, 100 μM L-ascorbic acid, 10 μM ferrous ammonium sulfate, 10 μM 2OG in 50 mM MES buffer (pH 7.0) for NO66 and 50 mM HEPES (pH 7.5) for MINA53
(§4) MINA53 and NO66 inhibition assays in the presence of Rpl27a31-49 and Rpl8_205-224 peptides, respectively, were performed under the following assay conditions: 400 nM MINA53/NO66, 5/50 μM inhibitor Rpl peptide, 100 μM LAA, 10 μM FAS, 10 μM 2OG in 50 mM MES buffer (pH 7.0) for NO66 and 50 mM HEPES buffer (pH 7.5) for MINA53.[24] After 10 minutes of preincubation 5 μM of substrate peptide was added and the reaction was incubated for 2 hours at room temperature. A positive control reaction containing enzyme and unmodified peptide substrate without any inhibitors was included. After 2 hours the reaction was stopped by addition of 20 μL of 10% (v/v) LC-MS grade formic acid (Fisher Scientific), mixed 1 : 1 with α-cyano-4-hydroxycinnamic acid (CHCCA) matrix dissolved in a mixture of H2O and MeCN (1 : 1, v/v), and loaded onto an MTP 384 polished steel target to be analyzed by MALDI-TOF MS. MINA53/NO66 residual activity was determined by calculating the relative integral of the […] peptide to a control reaction in absence of potential inhibitory peptides. Experiments were carried out in duplicate.
3. Inhibition supporting figure
Figure S9. Results from NO66 inhibition at A) 5 µM and B) 50 µM of Rpl8-based peptides. Error
bars are standard errors (SE) of duplicate analyses. […]

MINA53 = biological target: T2, MINA53 (Homo sapiens, UniProt Q8IUF8); experiment: MINA53 inhibition assay by Rpl27a peptides (MALDI-TOF MS); type: biochemical; settings: 10 μM 2OG; for IC50: 400 nM MINA53, 10 nM to 250 μM inhibitor Rpl peptide, 100 μM L-ascorbic acid, 10 μM ferrous ammonium sulfate, 50 mM HEPES pH 7.5, Rpl27a-His39 substrate, duplicate assays
T2 construct: His6; made in house; host or cells: Escherichia coli BL21(DE3), pET-28b
T2 sequence (Q8IUF8 26-464): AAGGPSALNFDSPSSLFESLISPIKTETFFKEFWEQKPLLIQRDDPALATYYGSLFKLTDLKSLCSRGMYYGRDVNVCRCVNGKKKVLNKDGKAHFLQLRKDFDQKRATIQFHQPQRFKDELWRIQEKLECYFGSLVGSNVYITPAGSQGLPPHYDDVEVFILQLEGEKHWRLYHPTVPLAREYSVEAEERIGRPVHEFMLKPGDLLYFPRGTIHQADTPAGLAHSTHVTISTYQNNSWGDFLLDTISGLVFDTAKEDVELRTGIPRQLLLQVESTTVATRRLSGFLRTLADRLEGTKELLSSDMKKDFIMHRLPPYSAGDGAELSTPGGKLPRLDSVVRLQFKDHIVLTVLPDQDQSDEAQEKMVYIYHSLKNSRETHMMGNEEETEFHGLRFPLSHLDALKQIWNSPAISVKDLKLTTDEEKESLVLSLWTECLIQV
Description: as §1
Fig. 4 Results for MINA53 inhibition at (a) 5 μM and (b) 50 μM by Rpl27a peptides. Error bars reported as standard errors (SE) carried out in duplicate. See Fig. 2 for analogue structures.
as §2, §3, §4

CC[C@H](C)[C@H](NC(=O)[C@H](Cc1c[nH]cn1)NC(=O)[C@H](CCC(N)=O)NC(=O)[C@H](CCCC(N)=O)NC(=O)[C@H](CC(N)=O)NC(=O)CNC(=O)CNC(=O)CNC(=O)[C@H](Cc1ccccc1)NC(=O)[C@@H]1CCCN1C(=O)[C@H](Cc1c[nH]cn1)NC(=O)[C@H](CCC(=O)O)NC(=O)[C@@H](NC(=O)[C@@H]1CCCN1C(=O)[C@@H](N)CC(N)=O)C(C)C)C(=O)NCC(=O)N[C@@H](CCCCN)C(=O)N1CCC[C@H]1C(=O)N[C@@H](CO)C(=O)N[C@H](C(N)=O)[C@@H](C)O [Rpl8-hGln216] (H-NPVEHPFGGGN[Aad](NH2)QHIGKPST-NH2; N-terminus assumed) was tested, and the IC50 (NO66) was 11.2 ± 0.4 µM and the inhibition at 5 µM (NO66) was about 50%.
CC[C@H](C)[C@H](NC(=O)[C@H](CCCNC(=N)N)NC(=O)[C@H](Cc1c[nH]cn1)NC(=O)[C@H](Cc1c[nH]cn1)NC(=O)[C@H](CCCC(N)=O)NC(=O)[C@H](CC(C)C)NC(=O)CNC(=O)CNC(=O)[C@H](C)NC(=O)[C@H](CC(N)=O)NC(=O)CNC(=O)[C@H](CCCNC(=N)N)NC(=O)CN)C(=O)N[C@@H](CC(N)=O)C(=O)N[C@@H](Cc1ccccc1)C(=O)N[C@@H](CC(=O)O)C(=O)N[C@@H](CCCCN)C(=O)N[C@@H](Cc1ccc(O)cc1)C(=O)N[C@@H](Cc1c[nH]cn1)C(=O)N1CCC[C@H]1C(N)=O [Rpl27a-hGln39] (H-GRGNAGGL[Aad](NH2)HHRINFDKYHP-NH2) was tested, and the IC50 (MINA53) was 1.47 ± 0.27 µM.
GRGNAGGLNHHRINFDKYHP-NH2 [Rpl27a-Asn39] was tested, and the IC50 (MINA53) was 1.02 ± 0.11 µM, the “MINA53 inhibition at 5 μM (in words)” value (MINA53; 5 μM inhibitor Rpl27a peptide, 400 nM MINA53, 100 μM LAA, 10 μM FAS, 50 mM HEPES pH 7.5, 10 min preincubation, then 5 μM Rpl27a-His39 substrate, 2 hours, room temperature, duplicate) was “displayed inhibition” and the “MINA53 inhibition at 50 μM (in words)” value (MINA53; 50 μM inhibitor Rpl27a peptide, 400 nM MINA53, 100 μM LAA, 10 μM FAS, 50 mM HEPES pH 7.5, 10 min preincubation, then 5 μM Rpl27a-His39 substrate, 2 hours, room temperature, duplicate) was “strong inhibition”.
For GRGNAGGLQHHRINFDKYHP-NH2 [Rpl27a-Gln39], the IC50 (MINA53) was 0.39 ± 0.16 µM.
NPVEHPFGGGNNQHIGKPST-NH2 [Rpl8-Asn216] showed an IC50 (NO66) of 8.86 ± 0.36 µM and an inhibition at 5 µM (NO66) of about 50%.
